Data: PubChem BioAssay AID2060506 (Molecular Pharmacology Branch, DTP, NCI, 2025)

Test system: 598228-144-R-J1-PDC complex spheroid viability
Test: Anticancer human tumor 598228-144-R-J1-PDC patient-derived serous endometrial adenocarcinoma cell line growth inhibition [GQUAD]
Details: for IC50: curve of first compound; for viability, T/C: stronger effect = lower value
Description: DNA G-quadruplex Stabilizer Agents in Combinations in Complex Spheroids
A high-throughput screen of multi-cell type tumor spheroids was designed to identify active combinations of DNA G-quadruplex stabilizer agents and targeted small molecules. Complex spheroids include a stromal component modeled by human endothelial cells (HUVEC) and fibroblasts modeled by human mesenchymal stem cells (MSCs). The concentration ranges selected for each drug and investigational agent were based upon clinically achievable concentrations if the clinical Cmax of the agent was known.
Compounds. The drugs and investigational agents: pidnarulex (CX-5461; NSC782164), APTO-253 (NSC789042), BRACO-19 (NSC847499), peposertib (NSC802822), ceralasertib (NSC780249), elimusertib (NSC800525), camonsertib (NSC841442), AZD-1390 (NSC803789), olaparib (NSC753686), talazoparib (NSC767125), ART-558 (NSC835418), sotorasib (NSC818433), MRTX-1133 (NSC836407), SN-38 (NSC673596), topotecan (NSC609699), etoposide (NSC141540), doxorubicin (NSC123127), gemcitabine (NSC613327), 5-fluorouracil (NSC19893), paclitaxel (NSC125973), vemurafenib (NSC761431), panobinostat (NSC761190), R-306465 (JNJ-16241199; NSC773264), adavosertib (NSC754352), TP-3654 (NSC805149), carboplatin (NSC241240), KSQ-4279 (NSC840948), and staurosporine (NSC755774) were obtained from the National Cancer Institute (NCI) Developmental Therapeutics Program Chemical Repository (34). The FDA-approved anticancer drug set is available from the NCI Developmental Therapeutics Program. […] The stock solutions were prepared in dimethyl sulfoxide (DMSO, Sigma-Aldrich, St. Louis, MO, cat. D2650) at 800-fold the tested concentration and stored at -70 degrees C prior to their use. All drugs and investigational agents were tested over a range starting from a high concentration at or near the clinical Cmax and decreasing in half-log increments. If the clinical Cmax for an agent had not been determined, the highest concentration tested was 10 microM.
2.3 Cell Culture. All cells were maintained in an incubator at 37 degrees C and 5% CO2 with 95% humidity. The PDC lines were cultured according to standard operating procedures established by the NCI PDMR. All PDCs were thawed and cultured in Matrigel-coated flasks prepared with a working solution of 1X Ham's F-12 nutrient mix, without supplementation (Invitrogen, cat. 11765054), 100 U/mL penicillin-streptomycin (Invitrogen, cat. 15140122), and 2.5% Matrigel (Corning Inc., cat. 354248) for the first three passages. The 857933-349-R-J2-PDC line was cultured in 6C/Colon 1B media, which includes advanced DMEM/F-12 (Thermo Fisher Scientific, cat. 12634028), 10 mM HEPES (Thermo Fisher Scientific, cat. 15630080), 1X GlutaMAX supplement (Thermo Fisher Scientific, cat. 35050061), 0.1 mg/mL primocin (InvivoGen, cat. ant-pm-2), 10% defined fetal bovine serum, heat inactivated (HyClone Laboratories Inc., cat. SH30070.03HI), 50% L-WRN conditioned media (ATCC, cat. CRL-3276), 1.25 mM N-Acetyl-L-cysteine (Sigma-Aldrich, cat. A9165), 10 mM nicotinamide (Sigma-Aldrich, cat. N0636), 1X B-27 supplement (Thermo Fisher Scientific, cat. 17504044), 1X N-2 supplement (Thermo Fisher Scientific, cat. 17502048), 10 microM Y-27632 dihydrochloride (Tocris Bioscience, cat. 1254), and 50 ng/mL human EGF recombinant protein (Thermo Fisher Scientific, cat. PHG0311). The 485176-168-R4-J1-PDC line was cultured in Panc media, which includes all 6C/Colon 1B media components plus 100 ng/mL human FGF-10 (Thermo Fisher Scientific, cat. 100-26), 500 nM SB-431542 (Selleckchem, cat. S1067), and gastrin (Tocris, cat. 3006).
[…]

[1] = second compound 0.0316 µM, first compound 0.0316 µM
[2] = second compound 0.0316 µM, first compound 0.1 µM
[3] = second compound 0.0316 µM, first compound 0.316 µM
[4] = second compound 0.0316 µM, first compound 1 µM
[5] = second compound 0.0316 µM, first compound 3.16 µM
[6] = second compound 0.0316 µM, first compound 10 µM
[7] = second compound 0.1 µM, first compound 0.0316 µM
[8] = second compound 0.1 µM, first compound 0.1 µM
[9] = second compound 0.1 µM, first compound 0.316 µM
[10] = second compound 0.1 µM, first compound 1 µM
[11] = second compound 0.1 µM, first compound 3.16 µM
[12] = second compound 0.1 µM, first compound 10 µM
[13] = second compound 0.316 µM, first compound 0.0316 µM
[14] = second compound 0.316 µM, first compound 0.1 µM
[15] = second compound 0.316 µM, first compound 0.316 µM
[16] = second compound 0.316 µM, first compound 1 µM
[17] = second compound 0.316 µM, first compound 3.16 µM
[18] = second compound 0.316 µM, first compound 10 µM
[19] = second compound 1 µM, first compound 0.0316 µM
[20] = second compound 1 µM, first compound 0.1 µM
[21] = second compound 1 µM, first compound 0.316 µM
[22] = second compound 1 µM, first compound 1 µM
[23] = second compound 1 µM, first compound 3.16 µM
[24] = second compound 1 µM, first compound 10 µM
[25] = second compound 3.16 µM, first compound 0.0316 µM
[26] = second compound 3.16 µM, first compound 0.1 µM
[27] = second compound 3.16 µM, first compound 0.316 µM
[28] = second compound 3.16 µM, first compound 1 µM
[29] = second compound 3.16 µM, first compound 3.16 µM
[30] = second compound 3.16 µM, first compound 10 µM
[31] = second compound 10 µM, first compound 0.0316 µM
[32] = second compound 10 µM, first compound 0.1 µM
[33] = second compound 10 µM, first compound 0.316 µM
[34] = second compound 10 µM, first compound 1 µM
[35] = second compound 10 µM, first compound 3.16 µM
[36] = second compound 10 µM, first compound 10 µM
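Note: spheroids exposed to the agents for one week before reading.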
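Throughout, for viability, T/C: percent of vehicle DMSO control viability so 100% = untreated growth.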

CC1COCCN1c1cc(C2(O)CC3CCC(C2)O3)c2cnn(-c3ccn[nH]3)c2n1 (stereo unspecified) + CN(C)c1ccc(Nc2c3ccc(NC(=O)CCN4CCCC4)cc3nc3cc(NC(=O)CCN4CCCC4)ccc23)cc1
IC50 (second compound 0.0316 µM): 0.0728 µM
IC50 (second compound 0.1 µM): 0.09 µM
IC50 (second compound 0.316 µM): 0.13 µM
IC50 (second compound 1 µM): 0.162 µM
IC50 (second compound 3.16 µM): 0.146 µM
IC50 (second compound 10 µM): 0.046 µM
viability, T/C [1]: 58.7%
viability, T/C [2]: 45.8%
viability, T/C [3]: 34.9%
viability, T/C [4]: 32.9%
viability, T/C [5]: 25.2%
viability, T/C [6]: 13.9%
viability, T/C [7]: 60.5%
viability, T/C [8]: 49.3%
viability, T/C [9]: 34.3%
viability, T/C [10]: 32.7%
viability, T/C [11]: 28.2%
viability, T/C [12]: 12.7%
viability, T/C [13]: 74.8%
viability, T/C [14]: 49%
viability, T/C [15]: 36.5%
viability, T/C [16]: 37.1%
viability, T/C [17]: 28.6%
viability, T/C [18]: 15.4%
viability, T/C [19]: 68.5%
viability, T/C [20]: 44.6%
viability, T/C [21]: 44.3%
viability, T/C [22]: 35.6%
viability, T/C [23]: 36.1%
viability, T/C [24]: 12.4%
viability, T/C [25]: 61.8%
viability, T/C [26]: 55.9%
viability, T/C [27]: 35.1%
viability, T/C [28]: 39.6%
viability, T/C [29]: 25.6%
viability, T/C [30]: 9.44%
viability, T/C [31]: 58.5%
viability, T/C [32]: 34.5%
viability, T/C [33]: 27.6%
viability, T/C [34]: 23.7%
viability, T/C [35]: 26.6%
viability, T/C [36]: 3.21%

CC1COCCN1c1cc(C2(S(C)(=N)=O)CC2)nc(-c2ccnc3[nH]ccc23)n1 (stereo unspecified) + CN(C)c1ccc(Nc2c3ccc(NC(=O)CCN4CCCC4)cc3nc3cc(NC(=O)CCN4CCCC4)ccc23)cc1
IC50 (second compound 0.0316 µM): 2.87 µM
IC50 (second compound 0.1 µM): 8.67 µM
IC50 (second compound 0.316 µM): > 10 µM
IC50 (second compound 1 µM): > 10 µM
IC50 (second compound 3.16 µM): > 10 µM
IC50 (second compound 10 µM): 1.73 µM
viability, T/C [1]: 91.7%
viability, T/C [2]: 117%
viability, T/C [3]: 102%
viability, T/C [4]: 81.5%
viability, T/C [5]: 46.5%
viability, T/C [6]: 47%
viability, T/C [7]: 97.7%
viability, T/C [8]: 122%
viability, T/C [9]: 98.7%
viability, T/C [10]: 98.3%
viability, T/C [11]: 62.7%
viability, T/C [12]: 48.3%
viability, T/C [13]: 97.1%
viability, T/C [14]: 136%
viability, T/C [15]: 85%
viability, T/C [16]: 61.8%
viability, T/C [17]: 61.6%
viability, T/C [18]: 45.9%
viability, T/C [19]: 125%
viability, T/C [20]: 96.6%
viability, T/C [21]: 103%
viability, T/C [22]: 70.8%
viability, T/C [23]: 69.2%
viability, T/C [24]: 60.1%
viability, T/C [25]: 125%
viability, T/C [26]: 89.2%
viability, T/C [27]: 99.4%
viability, T/C [28]: 69.4%
viability, T/C [29]: 61.7%
viability, T/C [30]: 57.7%
viability, T/C [31]: 95.8%
viability, T/C [32]: 88.5%
viability, T/C [33]: 89.9%
viability, T/C [34]: 64.7%
viability, T/C [35]: 33.9%
viability, T/C [36]: 26.6%

COc1ccc([C@@H](O)c2cc(-c3ncnc4cc(N5CCOCC5)ccc34)c(F)cc2Cl)nn1 + CN(C)c1ccc(Nc2c3ccc(NC(=O)CCN4CCCC4)cc3nc3cc(NC(=O)CCN4CCCC4)ccc23)cc1
IC50 (second compound 0.0316 µM): 2.6 µM
IC50 (second compound 0.1 µM): 3.83 µM
IC50 (second compound 0.316 µM): 2.3 µM
IC50 (second compound 1 µM): 2.3 µM
IC50 (second compound 3.16 µM): 2.46 µM
IC50 (second compound 10 µM): 0.79 µM
viability, T/C [1]: 96.4%
viability, T/C [2]: 77.6%
viability, T/C [3]: 73.4%
viability, T/C [4]: 68.2%
viability, T/C [5]: 44%
viability, T/C [6]: 32.5%
viability, T/C [7]: 121%
viability, T/C [8]: 94.4%
viability, T/C [9]: 90.5%
viability, T/C [10]: 68.4%
viability, T/C [11]: 52.2%
viability, T/C [12]: 36.4%
viability, T/C [13]: 89.8%
viability, T/C [14]: 91.1%
viability, T/C [15]: 79.3%
viability, T/C [16]: 64.4%
viability, T/C [17]: 44.9%
viability, T/C [18]: 29.5%
viability, T/C [19]: 110%
viability, T/C [20]: 91.6%
viability, T/C [21]: 76.3%
viability, T/C [22]: 53.3%
viability, T/C [23]: 52%
viability, T/C [24]: 33.7%
viability, T/C [25]: 117%
viability, T/C [26]: 108%
viability, T/C [27]: 103%
viability, T/C [28]: 58.8%
viability, T/C [29]: 53.6%
viability, T/C [30]: 26.2%
viability, T/C [31]: 106%
viability, T/C [32]: 73.6%
viability, T/C [33]: 76.3%
viability, T/C [34]: 43.3%
viability, T/C [35]: 26.4%
viability, T/C [36]: 20.1%
